In paper PMC2784364, “VX-166: a novel potent small molecule caspase inhibitor as a potential therapy for sepsis” (Critical Care, 2009):

Tests used:
[1] = target: T1, granzyme B (Homo sapiens, UniProt P10144); experiment: Granzyme B counter-screen; type: biochemical; settings: at 50 μM
T1 construct: purchased Merck Biosciences Ltd. (Nottingham, UK)
Method: (§1) Active recombinant caspase-1, -3, -4, -7 and -8 were prepared as described previously. Caspase-2 was purchased from Biomol (Exeter, UK), caspase-6 from BD Biosciences (Oxford, UK), caspase-9 from Europa Bioproducts Ltd. (Cambridge, UK) and caspase-10 from Chemicon International Inc. (Harrow, UK). Cathepsin B and granzyme B were purchased from Merck Biosciences Ltd. (Nottingham, UK). Fluorogenic protease substrates were purchased from Bachem Ltd. (St. Helens, UK). All reactions were carried out at 37°C using a Molecular Devices (Wokingham, UK) Gemini plate-reader at 460 nm (excitation wavelength of 390 nm). Caspase inhibition assays were conducted, with minor modifications, as described by Margolin and colleagues. Irreversible kinetics were analysed by calculations of second-order inactivation rate constants (k) using GraphPad (La Jolla, CA, USA) Prism 4.0 software. A larger number for an inactivation rate constant indicates a greater degree of inactivation. To determine the inhibitory effect on cathepsin B, 4.25 nM of the enzyme were added to 250 μM z-RR-AMC in 10 mM 2-morpholino-ethanesulfonic acid pH 6.0, 1 mM DTT, 1 mM EDTA and 0.03% Brij35 in the presence or absence of VX-166 and the reaction monitored continuously over 15 minutes. Granzyme B was assayed, with minor modifications, as described by Thornberry and colleagues. […]

[2] = target: T2, cathepsin B (Homo sapiens, UniProt P07858); experiment: Cathepsin B counter-screen; type: biochemical; settings: highest concentration tested
T2 construct: purchased Merck Biosciences Ltd. (Nottingham, UK)
Method: as §1

[3] = test system: Jurkat cells; experiment: Anti-Fas induced apoptosis in Jurkat cells, Annexin V; type: cell-based, human; settings: Anti-Fas, Human Jurkat cell line/Annexin V, 18 hours, n = 4; read-out: IC50, inhibition of apoptosis
Method: (§2) Jurkat cells were obtained from LGC Standards (Teddington, UK) and were grown in RPMI 1640, 10% FCS, 2 mM L-glutamine, 100 U/ml penicillin and 0.1 mg/ml streptomycin (all from Sigma Aldrich Ltd., Poole, UK) at 37°C in 5% CO2/95% humidity. Receptor- or stress-mediated apoptosis (2 × 10^5 cells/ml) was induced by addition of either anti-Fas antibody CH-11 (10 ng/ml, Millipore UK Ltd., Watford, UK), TNF-α (20 ng/ml, R&D Systems, Abingdon, UK) with cycloheximide (112 ng/ml, Sigma Aldrich Ltd., Poole, UK) or staurosporine (350 ng/ml, Sigma Aldrich Ltd., Poole, UK). VX-166 was diluted into DMSO (10 mM), further diluted in media and added at a range of concentrations. Cells were then incubated for 18 hours. Apoptotic cells were then labelled with Cy5-conjugated Annexin-V (BD Biosciences, Oxford, UK) and detected using a FMAT™ 8100 Fluorimetric Microassay Technology Reader (Applied Biosystems, Warrington, UK). For the experiments using anti-Fas antibody, apoptosis was additionally measured using a Cell Death Detection ELISA kit (Roche Diagnostics Ltd., Lewes, UK) following the manufacturer's instructions.

[4] = test system: Jurkat cells; experiment: TNF-α/cycloheximide induced apoptosis in Jurkat cells, Annexin V; type: cell-based; settings: Human Jurkat cell line/Annexin V, n = 4, read-out: IC50, inhibition of apoptosis
Method: as §2

[5] = test system: PBMC; experiment: PBMC viability (MTS assay); type: cell-based, human; settings: MTS assay conducted simultaneously with cytokine release assays
Method: Peripheral blood mononuclear cells (PBMC) from healthy donors were isolated by Ficoll-Paque gradient centrifugation from buffy coats obtained from the National Blood Transfusion Service (Bristol, UK). For IL-1β release, 5 × 10^5 cells/ml were then stimulated with 50 ng/ml lipopolysaccharide (LPS) from Escherichia coli (Sigma-Aldrich Ltd., Poole, UK) in the presence or absence of VX-166 and incubated for 18 hours. Secretion of IL-1β into the supernatant was determined by ELISA (R&D Systems, Abingdon, UK) following the manufacturer's instructions. For IL-18 release, 7.5 × 10^5 cells/ml were stimulated with 6.25 × 10^-4% (w/v) Staphylococcus aureus cell suspension (SAC; Sigma-Aldrich Ltd., Poole, UK) in the presence or absence of VX-166 and incubated overnight. The IL-18 content in the supernatants was quantified by ELISA (Caltag-MedSystems Ltd., Buckingham, UK) following the manufacturer's instructions. In both assays PBMC viability was assessed after the 18 hours incubation time using MTS assay (Promega UK Ltd., Southampton, UK) to ensure that the reduction in cytokine release was not caused by a cytotoxic effect of the compound.

[6] = test system: Sprague-Dawley rats; experiment: Caecal ligation and puncture in the rat, survival; type: in vivo; settings: rat CLP; for survival at day 10: control 40%
Method: CLP studies were performed in accordance with the National Institutes of Health guidelines for the use of experimental animals and were approved by the Institutional Animal Care and Use Committee of the Feinstein Institute for Medical Research. Adult male Sprague-Dawley rats (weighing 275 to 325 g, Charles River Laboratories, Wilmington, MA, USA) were fasted overnight then anaesthetised with isoflurane. The caecum was exposed via a 2 cm midline incision. It was ligated just distal to the ileocaecal valve, then punctured twice with an 18-gauge needle and gently squeezed to release a small amount of faecal material to ensure patency of the perforation sites before the abdominal incision was closed. Sham-operated rats underwent the same procedure with the exception that the caecum was neither ligated nor punctured. Animals received subcutaneous fluids (30 ml/kg saline) immediately after the procedure. No antibiotics were administered. In the 7 and 10 day survival studies animals were re-anaesthetised 20 hours after CLP, the perforated caecum was removed and the abdominal cavity washed twice with 40 ml of warm, sterilised saline. The abdominal cavity was closed, anaesthetics withdrawn and rats returned to their cages where they were allowed free access to food and water. In the 20 hour endpoint study the caecum was not removed. In this study blood samples were collected by cardiac puncture under terminal anaesthesia into heparinised syringes for the subsequent measurement of IL-1β and bacterial endotoxin, while the thymus was removed for analysis of thymocyte apoptosis.
Alzet® mini-osmotic pumps (Durect Corporation, Cupertino, CA, USA) were used for continuous delivery of VX-166 or vehicle (25% dimethyl sulphoxide: 75% propylene glycol). Pumps with a 2 ml reservoir capacity and a 10 μl//h delivery rate were used in all studies. These pumps are designed to deliver for seven days and so would have expired two to three days before the end of the 10 day survival studies. The mini-osmotic pumps were filled with VX-166 (5 to 25 mg/ml or vehicle) and primed overnight at 37°C prior to subcutaneous implantation in anaesthetised rats. The 25 mg/ml concentration of VX-166 equates to an approximate dose of 0.83 mg/kg/h for a 300 g rat. The pumps were implanted immediately following CLP, except in the delayed onset of treatment study in which pumps were implanted either immediately following CLP (0 hour) or 3 or 8 hours following CLP. Sham-operated rats were implanted with vehicle filled mini-osmotic pumps.

T1 sequence (P10144 21-247, species assumed): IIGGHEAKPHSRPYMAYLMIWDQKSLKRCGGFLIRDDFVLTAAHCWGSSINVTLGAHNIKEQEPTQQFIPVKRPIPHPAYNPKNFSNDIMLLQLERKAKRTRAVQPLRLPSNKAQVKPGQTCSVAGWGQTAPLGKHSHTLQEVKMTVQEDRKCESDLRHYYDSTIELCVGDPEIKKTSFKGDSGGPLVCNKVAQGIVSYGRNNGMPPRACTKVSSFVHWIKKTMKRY

CCC(C(=O)NC(CC(=O)O)C(=O)COc1c(F)c(F)cc(F)c1F)n1cccc(NC(=O)OC)c1=O (stereo not shown) [VX-166]
inhibitory activity against granzyme B [1]: did not show any inhibitory activity
inhibition at 50 µM [2]: 19%
IC50 [3]: 27 ± 9 nM
IC50 [4]: 120 ± 50 nM
cytotoxic effect in PBMC viability assay [5]: not due to a cytotoxic effect
survival over 10 days compared with vehicle control, second study ([6]; 25 mg/ml mini-osmotic pump immediately after CLP, n = 16): improved survival
survival at day 7 ([6]; 25 mg/ml mini-osmotic pump implanted immediately following CLP, n = 12, control 25%): 67%
survival at day 10 ([6]; 25 mg/ml pump started 0 hours after CLP, n = 12, P = 0.026): 83%
survival at day 10 ([6]; 25 mg/ml pump started 3 hours after CLP, n = 12, P = 0.009): 92%
survival at day 10 ([6]; 25 mg/ml pump started 8 hours after CLP, n = 12, P = 0.19): 66%
